pIC50: −log10 of the molar value. Where “and” joins values, the source holds several entries; their conditions need not be identical. Identical values can stand only once. Entries after “also recorded” stand apart in the source; their conditions may differ.

The text below walks through data of patent publication US20030162837A1, “Carboxyfullerenes and methods of use thereof” (priority 2002, published 2003).

Data set [1] is described as follows: Oxygen consumption studies with H2O2 (re-evolution of oxygen). The format is biochemical.
In data set [2] the test system is rats. As to conditions: rats treated from age 96 weeks through end of life; control 147+/−1; cited from earlier work.
The test system of data set [3] is Fisher 344 rats. As to conditions: cited from earlier work.
Data set [4] has as its system Fisher 344 rats. The following applies: same dose; cited from earlier work.
Data set [5] has as its system Drosophila. The following applies: cited from earlier work.
For data set [6], the system named is C57B6 mice. As to conditions: chronic treatment starting at 18 months of age; cited from earlier work.
The target in data set [7] is T1, xanthine oxidase (Homo sapiens, UniProt P47989). Nature of the data set: Xanthine oxidase metabolism of hypoxanthine (purines by HPLC). The format is biochemical. Here is the method: Hypoxanthine and its metabolites xanthine and uric acid were analyzed by HPLC at specific times during the xanthine oxidase: hypoxanthine reaction. The reaction was allowed to run for 40 or 100 minutes and was stopped by the addition of trifloroacetic acid (0.1% TFA) to denature xanthine oxidase. Samples were injected onto the HPLC and separated on a C18 column.

In data set [8] the test system is monkeys. As to conditions: mean survival 25 months; cited from earlier work.
For data set [9] the following is noted: treated animals; cited from earlier work.
Data set [10] is described as follows: Superoxide elimination: cytochrome c reduction (hypoxanthine/xanthine oxidase). The format is biochemical. As to conditions: for pIC50: superoxide from hypoxanthine/xanthine oxidase. As for the experimental part: (a) Superoxide was generated by oxidation of hypoxanthine by xanthine oxidase and assayed by reduction of cytochrome c (at absorbance maximum […]).
The ability of C3 to eliminate superoxide radical was assessed using three separate methods. In the first, O2 ? was generated by metabolism of hypoxanthine by xanthine oxidase (reaction 1). O2 ? production was determined by following cytochrome c reduction (absorbance max 550 nm) on a microtiter platereader as described (Quick et al., 2000). Stock solutions of cytochrome c were evaluated on a Beckman DU650 spectrophotometer to verify that that cytochrome c stock was fully oxidized prior to use, and to confirm the concentration of the stock. The reaction was run in the presence of superoxide dismutase (bovine SOD1, Sigma) to determine the non-specific reduction of cytochrome c (i.e. the rate of reaction in the absence of O2 ? ).

The nature of data set [11]: Characterization of C3 after exposure to superoxide (HPLC, mass spectrometry). The format is physicochemical. The source says:
Samples were then immediately injected onto the HPLC.
To maximize the amount of modified C3 present should structural changes occur, hexacarboxylic acid C3 and its decarboxylation products were exposed to superoxide generated by the xanthine oxidase reaction for four consecutive reactions by re-addition of the substrate, hypoxanthine. […] Compounds were extracted from the reaction mixture, and re-injected onto the HPLC. […] Peaks were collected and evaluated by mass spectrometry, but no changes in the molecular ions were observed.

The nature of data set [12]: Characterization of C3 after exposure to H2O2 (HPLC, spectroscopy). The data set is classed as physicochemical. The following applies: H2O2 20-200 mM; HPLC and spectroscopy.
Data set [13] deals with C57B6NIH male and female mice. Description: Longevity trial with mice (Kaplan-Meier survival, weights). The format is in vivo. Here is the method: FIG. 4 illustrates the survival curve for mice treated by the process of the instant invention vs. control. […]. The date of spontaneous death for each mouse was recorded, and used to calculate the lifespan. Lifespan of each mouse was calculated in months because mice received from the NIA rodent colony have their birth month, but not their specific birth date, recorded. Average survival was calculated for each treatment and the mean lifespans were compared using a t-test with significance set to p<0.05 (actual p=0.033). The lifespan of control mice was 23.5±5.5 months (mean±SD, n=8) and of C3-treated mice was 28.7±3.4 (mean±SD, n=9). This calculation includes one C3-treated mouse which is still alive as of Feb. 21, 2002, and whose lifespan was included as of this date. Continued survival by this mouse will further increase the average difference in lifespan, and will decrease the p value (increase the significance). […].
Twelve month old C57B6NIH male and female mice (equal numbers) were purchased from the National Institute on Aging (NIA) Aging Rodent Colony. Mice shipped from this colony were not selected in any way for health, tumors or other disabilities, and all mice obtained from the colony were subsequently enrolled in the study. Mice were randomly placed in same-sex numbered cages, two per cage, ear-punched for identification, and weighed. Mice were then trained on a rotorod twice per week for three sessions, and were then tested on the rotorod in three sessions to measure motor performance at baseline. Cages were then assigned to receive either treatment A or treatment B by an observer who was blind to what these treatments would be.
Solution A or solution B was placed in the water bottles, and solutions were topped-off twice weekly, and filtered to remove any particulates biweekly by an individual blind to the identity of the solutions. At 19 months of age, mice were weighed again, and underwent another round of rotorod training and testing. Mice were allowed to die spontaneously, and their date of death were recorded by the Animal Housing Facility staff as part of the normal operating procedure of the facility. […] When animals died, the cage number, identity of the animal, and the date of death were recorded on the death notice, which was then sent to the laboratory, where the information was entered into the database.
In addition, because longevity was increased by the oral dosing of a drug, it is the first practical method for achieving increased longevity in metazoans.

Data set [14] in a line: Pharmacokinetics study in mice. The data set is classed as in vivo. The text has this: […]. […] […].
Data set [15] in a line: Inhibition of pyrogallol autoxidation to purpurogallin. The format is biochemical. Here is the method:
Pyrogallol autooxidation to purpurogallin was assayed as described. Briefly, Tris-cacodylic acid buffer (55.6 mM) buffer, pH 8.2, was prepared with 1 mM diethyltriaminopentaacetic acid (DTPA) (TCB solution). The pyrogallol solution contained 10 mM pyrogallol in 10 mM HCl. To 0.9 ml of TCB, 0.1 ml of pyrogallol solution was added, rapidly vortexed, and placed in the cuvette. The increase in absorbance at 420 nm was followed for 60 sec in a Beckman DU 650 spectrophotometer at room temperature. The rate of pyrogallol autoxidation in the presence of SOD (100 U/ml) was subtracted from that of the control reaction without SOD to determine the rate that was specifically due to reaction with O2 ? .

The target of data set [16] is T1, xanthine oxidase. Description: O2 consumption during the xanthine oxidase reaction (Clark-type O2 electrode). The format is biochemical. As to conditions: in the presence of C3 compared with SOD. Here is the method: O2 consumption during the xanthine oxidase reaction was determined using an oxymetry chamber equipped with a Clark-type O2 electrode (Hansatech, UK).

T1 sequence (P47989 whole entry, species assumed): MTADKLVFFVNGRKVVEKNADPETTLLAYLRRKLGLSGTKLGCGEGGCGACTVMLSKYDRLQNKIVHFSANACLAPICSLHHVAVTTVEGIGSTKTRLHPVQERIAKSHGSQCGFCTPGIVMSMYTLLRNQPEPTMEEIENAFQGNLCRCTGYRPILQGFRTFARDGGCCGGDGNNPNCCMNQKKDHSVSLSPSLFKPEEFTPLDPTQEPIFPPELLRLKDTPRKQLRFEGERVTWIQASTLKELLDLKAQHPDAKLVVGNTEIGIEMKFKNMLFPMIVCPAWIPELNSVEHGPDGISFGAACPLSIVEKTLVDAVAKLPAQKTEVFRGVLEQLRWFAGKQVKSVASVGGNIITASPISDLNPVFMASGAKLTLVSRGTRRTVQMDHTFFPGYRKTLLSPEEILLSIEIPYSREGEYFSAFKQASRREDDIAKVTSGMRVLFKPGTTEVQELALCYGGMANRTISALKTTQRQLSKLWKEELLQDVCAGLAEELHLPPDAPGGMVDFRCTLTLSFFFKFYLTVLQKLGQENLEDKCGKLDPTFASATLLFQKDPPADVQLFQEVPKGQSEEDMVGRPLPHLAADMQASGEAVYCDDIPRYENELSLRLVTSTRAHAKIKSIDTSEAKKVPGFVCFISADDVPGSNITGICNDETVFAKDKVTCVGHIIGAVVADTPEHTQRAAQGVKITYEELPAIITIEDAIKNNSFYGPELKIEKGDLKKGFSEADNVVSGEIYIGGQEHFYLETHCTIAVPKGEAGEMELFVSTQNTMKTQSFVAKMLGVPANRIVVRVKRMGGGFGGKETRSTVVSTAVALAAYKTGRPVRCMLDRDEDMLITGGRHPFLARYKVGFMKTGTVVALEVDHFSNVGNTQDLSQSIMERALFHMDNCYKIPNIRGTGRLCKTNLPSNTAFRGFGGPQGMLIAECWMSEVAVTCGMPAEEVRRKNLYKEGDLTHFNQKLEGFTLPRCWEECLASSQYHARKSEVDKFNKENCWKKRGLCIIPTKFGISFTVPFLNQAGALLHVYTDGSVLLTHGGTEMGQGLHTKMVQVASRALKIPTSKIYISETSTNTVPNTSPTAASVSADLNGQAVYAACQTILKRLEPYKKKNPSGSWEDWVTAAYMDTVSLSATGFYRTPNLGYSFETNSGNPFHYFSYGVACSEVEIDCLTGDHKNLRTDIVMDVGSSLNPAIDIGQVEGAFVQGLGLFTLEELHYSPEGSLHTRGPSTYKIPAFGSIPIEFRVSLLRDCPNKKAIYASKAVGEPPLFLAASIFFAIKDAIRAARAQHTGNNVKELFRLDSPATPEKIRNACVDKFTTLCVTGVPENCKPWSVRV

For the compound catalase [reference compound], the “re-evolution of oxygen from H2O2” value in data set [1] was “rapid re-evolution of oxygen”.

For `C#CCN(C)[C@H](C)Cc1ccccc1` [deprenyl], the lifespan in data set [2] is recorded as 198+/−2 weeks. The increase in longevity in data set [3] (not statistically significant) is given as 7%. For the same compound, the mean survival in data set [3] (treatment from 18 months of age, controls 28) is on record as 30 months. The “effect on mortality and lifespan” value in [4] was “greater mortality and shortened lifespan”. The effect on lifespan entry in data set [5] is “did not show an increase in lifespan”. The survival benefit entry in data set [6] is reported as “failed to show any survival benefit”.

On to `O=c1[nH]c(=O)c2c[nH]nc2[nH]1` [Oxypurinol, reference compound], for which the “inhibition of purine metabolism” value in data set [7] (concentrations similar to those previously reported (data not shown)) was “completely inhibit”.

As for `O=CC[C@@H](O)[C@H](O)[C@H](O)CO` [2-deoxyglucose], the “lifespan of one treated monkey” value in data set [8] was 38 months. For the same compound, in data set [9], the body temperature entry was “lowered” and the plasma insulin levels entry is listed as “decreased”.

As for “SOD: superoxide dismutase (bovine SOD1, Sigma) [reference compound]”, the “Reaction rate (k)” value in data set [10] (reaction with superoxide, cytochrome c reduction) was found to be 2e+09 M⁻¹ s⁻¹. In [10], the pIC50 (in general, the IC50 on a negative log10 scale, so that one unit is a factor of ten) was 6.30.

Compound `O=C(O)c1ccc(/C2=C3\C=CC(=N3)/C(c3ccc(C(=O)O)cc3)=c3/cc/c4[n]3[Mn]([Cl])[n]3c2ccc3/C(c2ccc(C(=O)O)cc2)=C2/C=CC(=N2)\C=4c2ccc(C(=O)O)cc2)cc1` [MnTBAP, reference compound] showed a pIC50 in data set [10] of 4.30.

e,e,e C60[C(COOH)2]3 [C3]: the “concentration of superoxide in the reaction” value in [10] (500 μM) was “zero”. Moreover, the pIC50 is 3.48 in [10] and 3.44 in data set [15]. The “structural change after exposure to superoxide” value in data set [11] is given as “No change in the size or distribution of peaks; also recorded: no permanent chemical or structural changes”. Besides, the “re-evolution of oxygen from H2O2” value in [1] is given as “significantly slower than that seen with catalase”. Also, the “inhibition of xanthine oxidase metabolism of hypoxanthine” value in [7] (300 μM) is reported as less than 10%; in [7] (500 μM), 15%. Also, the “structural change after exposure to H2O2” value in data set [12] is “No change; also recorded: no change in the size or distribution of peaks; also recorded: no permanent chemical or structural changes”. In addition, the effect on weight entry in data set [13] (C3-treated mice) is “not accompanied by a reduction in weight”. The “lifespan (mean±SD)” value in data set [13] (C57B6 mice, C3 0.5 mg/kg/day in drinking water from age 12 months through end of life, n=9, control 23.5±5.5, 0.5 mg/kg/day) was 28.7±3.4 months and 28.7 months. Besides, the “weight at 19 months, females” value in [13] (females, control 27±1) is 29+1 grams. Further, the “weight at 19 months, males” value in [13] (males, control 35±4) is reported as 35±6 grams. In data set [14] (mice), this compound registered a plasma half-life of 8 h. The route of clearance result in data set [14] (mice) was “excretion through both the liver and kidney”. Moreover, in [14] (oral (e.g. drinking water) relative to intravenous, intraperitoneal or subcutaneous), the “fraction of dose absorbed when given orally” value is 1/15. Further, the “oxygen utilization by xanthine oxidase” value in data set [16] was “similar”.
